pIC50: −log10 of the molar value.
What was measured:
Type in all cases: binding
Conditions in all cases: His-tagged TEAD protein, biotinylated lipid pocket probe
TEAD4 = TEAD4 (Homo sapiens, UniProt Q15561); experiment: TEAD lipid pocket TR-FRET (Lipid HTRF) competition assay, TEAD4
Description: (§1) His-tagged TEAD proteins are pre-incubated with TEAD project compounds for 30 minutes at room temperature. Biotinylated lipid pocket probes are then added to the TEAD/Compound mixture and incubated for 60 minutes at room temperature. The lipid pocket probe competes with the test compound for the TEAD lipid pocket until equilibrium is reached. After 60 minutes, Europium labelled anti-His (Perkin Elmer #ADO 110) and XL665 labelled streptavidin (CIS Bio 610SAXAC) are added to the TEAD/test compound/lipid pocket mixture and incubated for 30 minutes. TR-FRET values are then measured using an EnVision multi-label plate reader (Perkin Elmer Cat #2104-1A.) If the lipid pocket probe binds to TEAD as expected, a TR-FRET signal results from the proximity of Tani-His Eu and XL665. If a TEAD lipid pocket binder such as binds and displaces the lipid pocket probe, the disruption of the TEAD:probe interaction results in a decrease in TR-FRET signal. The potency of compounds as TEAD lipid pocket binders is determined by IC50 value generated using a non-linear 4 parameter curve fit. This assay format enables more sensitive determinations of lipid pocket affinity than the aforementioned TEAD lipid pocket FP assay due to the decreased concentration of TEAD protein required for the TR-FRET assay format.

TEAD3 = TEAD3 (Homo sapiens, UniProt Q99594); experiment: TEAD lipid pocket TR-FRET (Lipid HTRF) competition assay, TEAD3
Description: as §1

TEAD1 = TEAD1 (Homo sapiens, UniProt P28347); experiment: TEAD lipid pocket TR-FRET (Lipid HTRF) competition assay, TEAD1
Description: as §1

TEAD2 = TEAD2 (Homo sapiens, UniProt Q15562); experiment: TEAD lipid pocket TR-FRET (Lipid HTRF) competition assay, TEAD2
Description: as §1

Chain of TEAD1 (P28347 whole entry, species assumed): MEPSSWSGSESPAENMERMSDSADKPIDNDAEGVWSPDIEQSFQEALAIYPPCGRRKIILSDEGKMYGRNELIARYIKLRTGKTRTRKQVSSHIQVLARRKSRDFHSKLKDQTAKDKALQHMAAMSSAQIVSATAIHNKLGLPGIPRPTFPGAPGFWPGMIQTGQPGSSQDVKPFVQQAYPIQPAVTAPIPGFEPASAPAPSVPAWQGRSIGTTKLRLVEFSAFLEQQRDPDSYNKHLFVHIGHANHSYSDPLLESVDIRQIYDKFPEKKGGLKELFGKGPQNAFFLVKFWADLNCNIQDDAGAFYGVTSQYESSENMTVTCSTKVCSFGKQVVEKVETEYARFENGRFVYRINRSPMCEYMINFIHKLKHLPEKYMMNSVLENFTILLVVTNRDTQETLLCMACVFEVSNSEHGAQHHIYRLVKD
Chain of TEAD4 (Q15561 whole entry, species assumed): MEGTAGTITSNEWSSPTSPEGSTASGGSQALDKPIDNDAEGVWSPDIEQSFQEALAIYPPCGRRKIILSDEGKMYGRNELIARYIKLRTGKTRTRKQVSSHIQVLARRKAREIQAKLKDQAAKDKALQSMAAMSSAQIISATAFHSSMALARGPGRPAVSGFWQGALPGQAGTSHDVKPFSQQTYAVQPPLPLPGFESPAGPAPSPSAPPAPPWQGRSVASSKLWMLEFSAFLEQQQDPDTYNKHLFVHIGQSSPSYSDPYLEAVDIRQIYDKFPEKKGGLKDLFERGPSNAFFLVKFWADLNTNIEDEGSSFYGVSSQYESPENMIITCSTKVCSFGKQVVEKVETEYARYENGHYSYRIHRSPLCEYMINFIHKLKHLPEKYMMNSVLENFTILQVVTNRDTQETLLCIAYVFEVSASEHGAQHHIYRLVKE
Chain of TEAD3 (Q99594 whole entry, species assumed): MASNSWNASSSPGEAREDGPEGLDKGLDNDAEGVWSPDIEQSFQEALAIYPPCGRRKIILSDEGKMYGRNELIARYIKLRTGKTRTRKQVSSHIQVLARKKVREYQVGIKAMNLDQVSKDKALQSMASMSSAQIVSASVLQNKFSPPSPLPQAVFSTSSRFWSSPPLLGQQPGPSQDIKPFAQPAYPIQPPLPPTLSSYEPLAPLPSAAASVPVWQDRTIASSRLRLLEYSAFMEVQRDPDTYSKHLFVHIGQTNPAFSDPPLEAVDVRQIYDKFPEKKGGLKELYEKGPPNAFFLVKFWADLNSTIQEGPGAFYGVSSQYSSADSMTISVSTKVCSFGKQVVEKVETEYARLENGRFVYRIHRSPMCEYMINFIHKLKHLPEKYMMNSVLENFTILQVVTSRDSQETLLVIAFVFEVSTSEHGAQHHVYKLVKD
Chain of TEAD2 (Q15562 whole entry, species assumed): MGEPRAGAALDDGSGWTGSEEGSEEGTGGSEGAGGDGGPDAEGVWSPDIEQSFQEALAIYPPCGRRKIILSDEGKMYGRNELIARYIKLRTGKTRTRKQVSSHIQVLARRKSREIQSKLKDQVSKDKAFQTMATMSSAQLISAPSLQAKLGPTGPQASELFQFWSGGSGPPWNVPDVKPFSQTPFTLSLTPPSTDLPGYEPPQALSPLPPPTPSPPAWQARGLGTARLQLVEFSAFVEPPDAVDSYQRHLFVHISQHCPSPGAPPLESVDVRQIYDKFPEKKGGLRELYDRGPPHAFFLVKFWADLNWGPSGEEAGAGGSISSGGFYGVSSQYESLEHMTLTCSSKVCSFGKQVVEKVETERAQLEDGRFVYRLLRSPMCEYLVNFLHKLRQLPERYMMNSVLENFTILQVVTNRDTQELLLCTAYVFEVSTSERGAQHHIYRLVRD

| pIC50 (TEAD4) | pIC50 (TEAD3) | pIC50 (TEAD1) | pIC50 (TEAD2) | Structure (SMILES) |
| --- | --- | --- | --- | --- |
| 7.05 | 5.22 | 6.19 | 6.64 | COc1cnc(C(=O)NCc2cccc(CC(=O)N(C)CCCCOc3ccc4c(c3)C(=O)N(C3CCC(=O)NC3=O)C4=O)c2)cc1/C=C/[C@H]1CC[C@H](C(F)(F)F)CC1 (stereo partly drawn) [Compound 1, N-(3-(2-((4-((2-(2,6-dioxopiperidin-3-yl)-1,3-dioxoisoindolin-5-yl)oxy)butyl)(methyl)amino)-2-oxoethyl)benzyl)-5-methoxy-4-((E)-2-(trans-4-(trifluoromethyl)cyclohexyl)vinyl)picolinamide] |
| 7.22 | 5.32 | 6.52 | 6.89 | COc1cnc(C(=O)NCc2cccc(CC(=O)N(C)CCOCCOCCOCCOc3ccc4c(c3)C(=O)N(C3CCC(=O)NC3=O)C4=O)c2)cc1/C=C/[C@H]1CC[C@H](C(F)(F)F)CC1 (stereo partly drawn) [Compound 3, N-(3-(14-((2-(2,6-Dioxopiperidin-3-yl)-1,3-dioxoisoindolin-5-yl)oxy)-3-methyl-2-oxo-6,9,12-trioxa-3-azatetradecyl)benzyl)-5-methoxy-4-((E)-2-(trans-4-(trifluoromethyl)cyclohexyl)vinyl)picolinamide] |
| 7.15 | 5.74 | 6.55 | 6.70 | COc1cnc(C(=O)NCc2cccc(CC(=O)N(C)CCOCCOCCOCCOCCOc3ccc4c(c3)C(=O)N(C3CCC(=O)NC3=O)C4=O)c2)cc1/C=C/[C@H]1CC[C@H](C(F)(F)F)CC1 (stereo partly drawn) [Compound 4, N-(3-(17-((2-(2,6-Dioxopiperidin-3-yl)-1,3-dioxoisoindolin-5-yl)oxy)-3-methyl-2-oxo-6,9,12,15-tetraoxa-3-azaheptadecyl)benzyl)-5-methoxy-4-((E)-2-(trans-4-(trifluoromethyl)cyclohexyl)vinyl)picolinamide] |
| 6.96 | 5.40 | 6.29 | 6.74 | COc1cnc(C(=O)NCc2cccc(CC(=O)N(C)CCOCCOc3ccc4c(c3)C(=O)N(C3CCC(=O)NC3=O)C4=O)c2)cc1/C=C/[C@H]1CC[C@H](C(F)(F)F)CC1 (stereo partly drawn) [Compound 5, N-(3-(2-((2-(2-((2-(2,6-Dioxopiperidin-3-yl)-1,3-dioxoisoindolin-5-yl)oxy)ethoxy)ethyl)(methyl)amino)-2-oxoethyl)benzyl)-5-methoxy-4-((E)-2-(trans-4-(trifluoromethyl)cyclohexyl)vinyl)picolinamide] |
| 7.15 | 4.52 | 5.94 | 6.74 | COc1cnc(C(=O)NCc2cccc(CC(=O)N(C)CCOCCOCCOc3ccc4c(c3)C(=O)N(C3CCC(=O)NC3=O)C4=O)c2)cc1/C=C/[C@H]1CC[C@H](C(F)(F)F)CC1 (stereo partly drawn) [Compound 6, N-(3-(2-((2-(2-(2-((2-(2,6-Dioxopiperidin-3-yl)-1,3-dioxoisoindolin-5-yl)oxy)ethoxy)ethoxy)ethyl)(methyl)amino)-2-oxoethyl)benzyl)-5-methoxy-4-((E)-2-(trans-4-(trifluoromethyl)cyclohexyl)vinyl)picolinamide] |
| 7.22 | 5.70 | 6.44 | 6.96 | COc1cnc(C(=O)NCc2cccc(CC(=O)N(C)CCOCCOCCOCCOCCOCCOc3ccc4c(c3)C(=O)N(C3CCC(=O)NC3=O)C4=O)c2)cc1/C=C/[C@H]1CC[C@H](C(F)(F)F)CC1 (stereo partly drawn) [Compound 7, N-(3-(20-((2-(2,6-Dioxopiperidin-3-yl)-1,3-dioxoisoindolin-5-yl)oxy)-3-methyl-2-oxo-6,9,12,15,18-pentaoxa-3-azaicosyl)benzyl)-5-methoxy-4-((E)-2-(trans-4-(trifluoromethyl)cyclohexyl)vinyl)picolinamide] |
| 6.74 | 5.09 | 6.14 | 6.54 | COc1cnc(C(=O)NCc2cccc(CC(=O)N(C)CCCOc3ccc4c(c3)C(=O)N(C3CCC(=O)NC3=O)C4=O)c2)cc1/C=C/[C@H]1CC[C@H](C(F)(F)F)CC1 (stereo partly drawn) [Compound 8, N-(3-(2-((3-((2-(2,6-Dioxopiperidin-3-yl)-1,3-dioxoisoindolin-5-yl)oxy)propyl)(methyl)amino)-2-oxoethyl)benzyl)-5-methoxy-4-((E)-2-(trans-4-(trifluoromethyl)cyclohexyl)vinyl)picolinamide] |
| 6.33 | 4.30 | 4.73 | 5.32 | COc1cnc(C(=O)NCc2cccc(CC(=O)N(C)CCCCCOc3ccc4c(c3)C(=O)N(C3CCC(=O)NC3=O)C4=O)c2)cc1/C=C/[C@H]1CC[C@H](C(F)(F)F)CC1 (stereo partly drawn) [Compound 10, N-(3-(2-((5-((2-(2,6-Dioxopiperidin-3-yl)-1,3-dioxoisoindolin-5-yl)oxy)pentyl)(methyl)amino)-2-oxoethyl)benzyl)-5-methoxy-4-((E)-2-(trans-4-(trifluoromethyl)cyclohexyl)vinyl)picolinamide] |

Continued, compound first:

| Structure (SMILES) | pIC50 (TEAD4) | pIC50 (TEAD3) | pIC50 (TEAD1) | pIC50 (TEAD2) |
| --- | --- | --- | --- | --- |
| COc1cnc(C(=O)NCc2cccc(CC(=O)N(C)CCCCCCOc3ccc4c(c3)C(=O)N(C3CCC(=O)NC3=O)C4=O)c2)cc1/C=C/[C@H]1CC[C@H](C(F)(F)F)CC1 (stereo partly drawn) [Compound 2, N-(3-(2-((6-((2-(2,6-Dioxopiperidin-3-yl)-1,3-dioxoisoindolin-5-yl)oxy)hexyl)(methyl)amino)-2-oxoethyl)benzyl)-5-methoxy-4-((E)-2-(trans-4-(trifluoromethyl)cyclohexyl)vinyl)picolinamide] | 6.40 | 4.72 | 5.24 | 5.94 |
| COc1cnc(C(=O)NCc2cccc(CC(=O)N(C)CCCCCCCOc3ccc4c(c3)C(=O)N(C3CCC(=O)NC3=O)C4=O)c2)cc1/C=C/[C@H]1CC[C@H](C(F)(F)F)CC1 (stereo partly drawn) [Compound 9, N-(3-(2-((7-((2-(2,6-Dioxopiperidin-3-yl)-1,3-dioxoisoindolin-5-yl)oxy)heptyl)(methyl)amino)-2-oxoethyl)benzyl)-5-methoxy-4-((E)-2-(trans-4-(trifluoromethyl)cyclohexyl)vinyl)picolinamide] | 6.49 | 5.27 | 5.89 | 6.19 |
| COc1cnc(C(=O)NCc2cccc(CC(=O)NCCCCC(=O)N[C@H](C(=O)N3C[C@H](O)C[C@H]3C(=O)NCc3ccc(-c4scnc4C)cc3)C(C)(C)C)c2)cc1/C=C/[C@H]1CC[C@H](C(F)(F)F)CC1 [Compound 11, N-(3-(2-((5-(((S)-1-((2S,4R)-4-Hydroxy-2-((4-(4-methylthiazol-5-yl)benzyl)carbamoyl)pyrrolidin-1-yl)-3,3-dimethyl-1-oxobutan-2-yl)amino)-5-oxopentyl)amino)-2-oxoethyl)benzyl)-5-methoxy-4-((E)-2-(trans-4-(trifluoromethyl)cyclohexyl)vinyl)picolinamide] | 6.77 | 5.60 | 6.15 | 6.43 |
| COc1cnc(C(=O)NCc2cccc(CC(=O)NCCCCCCC(=O)N[C@H](C(=O)N3C[C@H](O)C[C@H]3C(=O)NCc3ccc(-c4scnc4C)cc3)C(C)(C)C)c2)cc1/C=C/[C@H]1CC[C@H](C(F)(F)F)CC1 [Compound 12, N-(3-(2-((7-(((S)-1-((2S,4R)-4-Hydroxy-2-((4-(4-methylthiazol-5-yl)benzyl)carbamoyl)pyrrolidin-1-yl)-3,3-dimethyl-1-oxobutan-2-yl)amino)-7-oxoheptyl)amino)-2-oxoethyl)benzyl)-5-methoxy-4-((E)-2-(trans-4-(trifluoromethyl)cyclohexyl)vinyl)picolinamide] | 6.55 | 5.23 | 5.88 | 6.16 |
| COc1cnc(C(=O)NCc2cccc(CC(=O)NCCCCCCCCC(=O)N[C@H](C(=O)N3C[C@H](O)C[C@H]3C(=O)NCc3ccc(-c4scnc4C)cc3)C(C)(C)C)c2)cc1/C=C/[C@H]1CC[C@H](C(F)(F)F)CC1 [Compound 13, N-(3-(2-((9-(((S)-1-((2S,4R)-4-Hydroxy-2-((4-(4-methylthiazol-5-yl)benzyl)carbamoyl)pyrrolidin-1-yl)-3,3-dimethyl-1-oxobutan-2-yl)amino)-9-oxononyl)amino)-2-oxoethyl)benzyl)-5-methoxy-4-((E)-2-(trans-4-(trifluoromethyl)cyclohexyl)vinyl)picolinamide] | 6.66 | 5.39 | 6.01 | 6.34 |
| COc1cnc(C(=O)NCc2cccc(CC(=O)NCCOCCOCC(=O)N[C@H](C(=O)N3C[C@H](O)C[C@H]3C(=O)NCc3ccc(-c4scnc4C)cc3)C(C)(C)C)c2)cc1/C=C/[C@H]1CC[C@H](C(F)(F)F)CC1 [Compound 14, N-(3-((S)-13-((2S,4R)-4-Hydroxy-2-((4-(4-methylthiazol-5-yl)benzyl)carbamoyl)pyrrolidine-1-carbonyl)-14,14-dimethyl-2,11-dioxo-6,9-dioxa-3,12-diazapentadecyl)benzyl)-5-methoxy-4-((E)-2-(trans-4-(trifluoromethyl)cyclohexyl)vinyl)picolinamide] | 6.77 | 5.42 | 6.14 | 6.39 |

Reference: patent US12643880B2, “Heterobifunctional molecules as TEAD inhibitors” (Genentech, Inc., priority 2020, dated 2026)
